Results taken from ChEMBL document CHEMBL1201862, “PubChem BioAssay data set” (2004).
Active and inactive are the calls of the source.

Key:
[1] = growth suppression of PTEN-null colon cells, dose response, cell-based, HCT116 PTEN knockout (AID 1047); type: functional;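 further: HCT116 colon tumor cells with PTEN knocked out; cells exposed to compound for 60 hours before readout; potency for loss of cell viability measured by luminescence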
[2] = HepG2 cell cytotoxicity, dose response, cytotoxicity control for non-replicating M. tuberculosis project (AID 489018); type: functional; details: Mycobacterium tuberculosis
[3] = system: INS1; experiment: beta cell apoptosis inhibitors, cytokine rescue, dose response, luminescence, retest (AID 449756); type: functional, cell-based; details: Rattus norvegicus;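 further: cell death triggered by IL-1 beta plus TNF-alpha plus IFN-gamma mixture; protective hits raise ATP signal compared with cytokine alone wells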
[4] = cells; type: functional
[5] = control 3'UTR Renilla luciferase suppression, dose response, counter-screen for Shn3 inhibitor project, cell-based, Clone20-Shn3RL, cherry-picked (AID 624133); type: functional
[6] = cytotoxicity toward DRD oncogenic fibroblasts, dose response, cell-based, non-viral oncogenic, luminescence (AID 1934); type: functional; details: Homo sapiens
[7] = biological target: Heat shock protein HSP 90-alpha (Homo sapiens, UniProt P07900); type: functional, organism-based
[8] = biological target: T1, Heat shock factor protein 1 (Mus musculus, UniProt P38532); experiment: HSF1 potentiators in luciferase reporter cells, confirmation, cell-based, NIH3T3, luminescence, dose retest (AID 435004); type: functional;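 further: stress induced by proteasome inhibitor MG132 added 30 min after compound; luciferase reporter driven by HSF1 response element in NIH3T3 cells; actives raise luminescence as potentiators of the MG132 stress response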
T1 sequence (P38532 whole entry): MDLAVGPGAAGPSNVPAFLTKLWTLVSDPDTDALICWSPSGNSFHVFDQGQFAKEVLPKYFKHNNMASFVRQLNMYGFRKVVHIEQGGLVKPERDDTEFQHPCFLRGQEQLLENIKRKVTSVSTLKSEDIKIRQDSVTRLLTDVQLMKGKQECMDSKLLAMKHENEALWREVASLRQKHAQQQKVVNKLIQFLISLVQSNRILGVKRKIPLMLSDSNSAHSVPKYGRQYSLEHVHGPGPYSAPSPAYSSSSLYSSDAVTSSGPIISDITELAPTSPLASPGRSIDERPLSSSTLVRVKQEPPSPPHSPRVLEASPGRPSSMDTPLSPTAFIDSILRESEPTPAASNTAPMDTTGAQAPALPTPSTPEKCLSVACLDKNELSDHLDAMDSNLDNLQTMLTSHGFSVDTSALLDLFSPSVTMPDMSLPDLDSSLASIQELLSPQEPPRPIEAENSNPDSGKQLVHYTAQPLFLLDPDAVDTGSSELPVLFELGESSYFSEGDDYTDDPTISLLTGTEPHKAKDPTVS

[9] = Shn3 3'UTR reporter inhibitors, dose response, cell-based, Clone20 osteoblasts, firefly luciferase, cherry-picked (AID 624132); type: functional;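 further: firefly luciferase luminescence from reporter carrying the Shn3 3'UTR in osteoblasts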
[10] = biological target: Cytochrome P450 2D6 (Homo sapiens, UniProt P10635);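 further: CYP2D6 member of a cytochrome P450 panel assay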
[11] = Vero E6 cell cytotoxicity, dose response, cytotoxicity control for non-replicating M. tuberculosis project, secondary assay (AID 492998); type: functional, VeroE6; details: Vero C1008
[12] = system: BJ; experiment: cytotoxicity toward BJ-TERT-LT-ST fibroblasts, dose response, cell-based, RAS-independent, luminescence (AID 1935); type: functional; details: Homo sapiens;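 further: BJ fibroblasts immortalized with TERT plus LT and ST oncogenes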
[13] = HepG2 cell cytotoxicity, dose response, cytotoxicity control for Shn3 inhibitor project, CellTiter-Glo, cherry-picked (AID 624134); type: functional, cell-based
[14] = inhibitors of firefly luciferase expression or activity, dose response, H4 neuroglioma cells, luminescence (AID 1990); type: functional, cell-based
[15] = Luminescence Cell-Based Dose Response HTS to Identify Inhibitors of 5'UTR Stem-Loop Driven Prion Protein mRNA Translation in H4 Neuroglioblastoma Cells. [Related pubchem assays: 1827 (Project Summary), 1813 (Primary HTS)]; type: functional
[16] = system: BJ; experiment: cells; type: functional, cell-based; details: Homo sapiens
[17] = system: BJ; experiment: cytotoxicity toward Ras-transformed BJeLR fibroblasts, dose response, cell-based, alamar blue fluorescence, cherrypicked samples (AID 2631); type: functional; details: Homo sapiens;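 further: confirmatory dose-response assay in RAS-dependent BJ fibroblasts engineered with TERT, LT and ST, with cytotoxicity read by fluorescence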
[18] = system: BJ; experiment: cytotoxicity toward BJ-TERT fibroblasts, dose response, cell-based, RAS-independent, luminescence (AID 1933); type: functional; details: Homo sapiens
[19] = growth suppression of beta-catenin-knockout colon cells, dose response, cell-based, HCT116, human colon tumor (AID 1045); type: functional;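 further: HCT116 colon tumor cells with beta catenin knocked out; cells exposed to compound for 60 hours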
[20] = THP-1 cell cytotoxicity, dose response, cytotoxicity control for non-replicating M. tuberculosis project (AID 489025); type: functional
[21] = inhibitors of SNCA 5'UTR-driven reporter translation, confirmation, H4 neuroglioma cells, luminescence (AID 1988); type: functional, cell-based
[22] = biological target: Cytochrome P450 3A4 (Homo sapiens, UniProt P08684);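 further: CYP3A4 tested as one member of a cytochrome P450 panel screen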
[23] = biological target: T2, Coagulation factor XII (Homo sapiens, UniProt P00748); type: functional;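 further: activated factor XIIa alpha cleaving a fluorogenic AMC peptide substrate; inhibitor potency from loss of enzyme activity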
T2 sequence (P00748 whole entry): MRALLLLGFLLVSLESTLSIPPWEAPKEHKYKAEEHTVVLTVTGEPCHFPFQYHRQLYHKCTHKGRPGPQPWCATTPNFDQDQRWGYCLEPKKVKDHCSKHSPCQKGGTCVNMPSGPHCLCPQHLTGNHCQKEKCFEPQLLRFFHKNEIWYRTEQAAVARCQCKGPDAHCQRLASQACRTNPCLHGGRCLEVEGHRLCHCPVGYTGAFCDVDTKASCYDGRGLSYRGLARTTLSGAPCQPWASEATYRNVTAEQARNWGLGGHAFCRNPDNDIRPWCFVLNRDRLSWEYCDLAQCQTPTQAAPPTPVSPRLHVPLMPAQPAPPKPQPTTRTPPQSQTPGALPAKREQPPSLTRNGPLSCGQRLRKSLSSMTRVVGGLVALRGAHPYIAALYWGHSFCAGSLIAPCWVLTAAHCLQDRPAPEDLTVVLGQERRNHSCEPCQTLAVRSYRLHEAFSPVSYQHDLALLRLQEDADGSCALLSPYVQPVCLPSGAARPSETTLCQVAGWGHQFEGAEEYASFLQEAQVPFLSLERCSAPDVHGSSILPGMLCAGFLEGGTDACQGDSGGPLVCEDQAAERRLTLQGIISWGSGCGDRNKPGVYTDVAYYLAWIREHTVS

[24] = biological target: T3, Bcl-2-related protein A1 (Mus musculus, UniProt Q07440); type: functional;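 further: confirmatory dose–response counterscreen on Bfl-1, used to check hits from a UBC13 polyubiquitin inhibitor campaign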
T3 sequence (Q07440 whole entry): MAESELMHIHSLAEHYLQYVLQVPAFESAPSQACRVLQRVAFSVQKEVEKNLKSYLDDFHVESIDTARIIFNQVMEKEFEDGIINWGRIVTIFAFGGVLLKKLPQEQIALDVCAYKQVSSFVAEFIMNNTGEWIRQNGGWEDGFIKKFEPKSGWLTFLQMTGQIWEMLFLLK

[25] = biological target: T4, Ubiquitin-conjugating enzyme E2 N (Homo sapiens, UniProt P61088); type: functional
T4 sequence (P61088 whole entry): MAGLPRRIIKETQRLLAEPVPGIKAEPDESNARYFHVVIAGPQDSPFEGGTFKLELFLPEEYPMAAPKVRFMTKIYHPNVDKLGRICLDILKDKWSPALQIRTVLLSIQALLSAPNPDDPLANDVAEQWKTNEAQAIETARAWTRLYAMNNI

[26] = biological target: T4, Ubiquitin-conjugating enzyme E2 N; type: functional; remark: listed apart in the source
[27] = system: HEK293; experiment: cells; type: functional, cell-based; details: Homo sapiens
[28] = system: HEK293; experiment: NOD2 signaling inhibitors in MDP-stimulated cells, cell-based, uHTS, luminescence (AID 2001); type: functional; details: Homo sapiens
[29] = biological target: T5, Microphthalmia-associated transcription factor (Homo sapiens, UniProt O75030); experiment: TRPM1 promoter luciferase signal decrease, dose response, MITF inhibitor project, cell-based, SK-MEL-5, cherry-picked, set 3 (AID 493073); type: functional
T5 sequence (O75030 whole entry): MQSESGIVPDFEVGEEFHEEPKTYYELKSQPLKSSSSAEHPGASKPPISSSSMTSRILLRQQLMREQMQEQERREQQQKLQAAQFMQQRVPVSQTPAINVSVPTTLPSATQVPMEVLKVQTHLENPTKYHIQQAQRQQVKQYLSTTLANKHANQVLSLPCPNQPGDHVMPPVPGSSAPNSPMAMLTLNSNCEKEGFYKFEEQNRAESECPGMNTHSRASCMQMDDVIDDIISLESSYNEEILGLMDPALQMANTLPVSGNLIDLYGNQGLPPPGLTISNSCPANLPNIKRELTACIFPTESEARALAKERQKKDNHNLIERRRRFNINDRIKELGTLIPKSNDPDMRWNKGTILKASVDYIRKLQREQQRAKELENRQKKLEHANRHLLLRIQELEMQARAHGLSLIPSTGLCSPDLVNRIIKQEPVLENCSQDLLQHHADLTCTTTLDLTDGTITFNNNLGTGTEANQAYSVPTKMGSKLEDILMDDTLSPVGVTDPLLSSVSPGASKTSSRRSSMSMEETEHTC

[30] = system: HEK293; experiment: cells; type: functional, cell-based; details: Homo sapiens; remark: listed apart in the source
[31] = biological target: Nucleotide-binding oligomerization domain-containing protein 2 (Homo sapiens, UniProt Q9HC29); experiment: NOD2 signaling inhibitors, cell-based, luminescence, uHTS, HEK293 (AID 1566); type: functional
[32] = system: HEK293; experiment: cells; type: functional, cell-based; details: Homo sapiens; remark: listed apart in the source
[33] = system: HEK293; experiment: NOD1 signaling inhibitors, primary screen, cell-based, luminescence, uHTS (AID 1578); type: functional; details: Homo sapiens

Cytochrome P450 2D6, sequence (P10635 whole entry): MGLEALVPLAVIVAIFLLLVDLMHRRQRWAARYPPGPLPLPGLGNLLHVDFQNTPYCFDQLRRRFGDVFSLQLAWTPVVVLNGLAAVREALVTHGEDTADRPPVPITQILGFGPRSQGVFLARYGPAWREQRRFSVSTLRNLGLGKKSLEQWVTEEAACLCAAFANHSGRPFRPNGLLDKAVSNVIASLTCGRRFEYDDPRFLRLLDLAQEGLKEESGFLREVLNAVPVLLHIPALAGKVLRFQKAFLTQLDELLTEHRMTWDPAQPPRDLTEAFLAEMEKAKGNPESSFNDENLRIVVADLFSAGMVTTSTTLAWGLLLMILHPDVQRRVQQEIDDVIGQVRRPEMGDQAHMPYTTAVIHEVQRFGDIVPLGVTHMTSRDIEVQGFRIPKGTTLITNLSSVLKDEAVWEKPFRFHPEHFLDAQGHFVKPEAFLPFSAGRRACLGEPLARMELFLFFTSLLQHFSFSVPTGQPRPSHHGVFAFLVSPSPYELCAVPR
Nucleotide-binding oligomerization domain-containing protein 2, sequence (Q9HC29 whole entry, the tested form may be a part): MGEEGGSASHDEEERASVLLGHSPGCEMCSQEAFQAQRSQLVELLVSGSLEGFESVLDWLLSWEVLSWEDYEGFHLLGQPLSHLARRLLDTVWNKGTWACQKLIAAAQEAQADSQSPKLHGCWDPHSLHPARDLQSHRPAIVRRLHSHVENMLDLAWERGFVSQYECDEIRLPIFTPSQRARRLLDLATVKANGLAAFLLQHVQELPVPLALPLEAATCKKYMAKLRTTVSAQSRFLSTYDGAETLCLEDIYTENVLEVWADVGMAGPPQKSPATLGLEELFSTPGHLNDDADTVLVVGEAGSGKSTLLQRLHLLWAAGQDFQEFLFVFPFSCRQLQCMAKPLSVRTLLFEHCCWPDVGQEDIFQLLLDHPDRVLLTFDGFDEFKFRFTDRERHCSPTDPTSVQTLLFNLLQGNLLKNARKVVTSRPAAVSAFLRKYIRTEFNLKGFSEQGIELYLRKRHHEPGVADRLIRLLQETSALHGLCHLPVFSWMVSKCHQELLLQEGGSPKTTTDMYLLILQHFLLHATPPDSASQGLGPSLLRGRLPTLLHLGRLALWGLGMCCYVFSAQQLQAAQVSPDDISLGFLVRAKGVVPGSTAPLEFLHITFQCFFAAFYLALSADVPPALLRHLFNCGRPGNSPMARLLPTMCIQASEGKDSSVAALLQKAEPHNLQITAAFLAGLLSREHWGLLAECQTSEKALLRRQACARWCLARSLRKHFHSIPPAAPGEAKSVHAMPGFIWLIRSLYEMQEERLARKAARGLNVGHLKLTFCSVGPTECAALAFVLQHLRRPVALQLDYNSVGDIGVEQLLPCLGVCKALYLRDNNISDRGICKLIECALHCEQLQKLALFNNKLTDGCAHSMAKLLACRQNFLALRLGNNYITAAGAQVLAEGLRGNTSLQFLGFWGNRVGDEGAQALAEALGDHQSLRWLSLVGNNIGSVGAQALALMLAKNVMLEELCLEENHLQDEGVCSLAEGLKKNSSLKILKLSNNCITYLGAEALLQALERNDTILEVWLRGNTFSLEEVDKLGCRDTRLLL
Cytochrome P450 3A4, sequence (P08684 whole entry): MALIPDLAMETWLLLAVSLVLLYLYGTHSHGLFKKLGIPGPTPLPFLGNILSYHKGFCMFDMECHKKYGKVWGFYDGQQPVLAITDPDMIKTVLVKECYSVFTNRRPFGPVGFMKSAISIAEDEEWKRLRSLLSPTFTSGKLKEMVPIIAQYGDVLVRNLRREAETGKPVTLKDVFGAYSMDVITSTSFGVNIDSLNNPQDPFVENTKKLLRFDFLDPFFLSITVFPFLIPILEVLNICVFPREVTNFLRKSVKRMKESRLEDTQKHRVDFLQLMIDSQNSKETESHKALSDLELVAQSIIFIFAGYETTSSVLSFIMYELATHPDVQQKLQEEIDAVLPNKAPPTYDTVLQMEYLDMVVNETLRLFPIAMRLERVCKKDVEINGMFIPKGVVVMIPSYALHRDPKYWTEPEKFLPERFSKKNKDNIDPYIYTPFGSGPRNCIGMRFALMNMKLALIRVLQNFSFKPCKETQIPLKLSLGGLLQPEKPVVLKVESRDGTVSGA

| Compound | CC50 [2] | AC50 [3] | IC50 [4] | EC50 [6] | CC50 [11] | EC50 [12] | EC50 [14] | EC50 [15] | EC50 [16] | EC50 [17] | EC50 [18] | CC50 [20] | EC50 [21] | IC50 [24] | IC50 [25] | IC50 [26] | other results |
| --- | --- | --- | --- | --- | --- | --- | --- | --- | --- | --- | --- | --- | --- | --- | --- | --- | --- |
| Cn1c(/C=C/c2ccc([N+](=O)[O-])o2)nc2ccccc2c1=O | 2.67 µM (active) | 2.55 µM (active) | 0.78 µM (active) | 3.02 µM (active) | 6.22 µM (active) | 2.75 µM (inconclusive) | > 120 µM (not active) | > 120 µM (not active) | 3.51 µM (inconclusive) | 1.35 µM (active) | 4.06 µM (active) | 1.44 µM (active) | > 120 µM (not active) |  |  |  | EC50 [1]: < 0.059 µM (active); AC50 [5]: 7 µM (active); AC50 [7]: 5 µM (active); EC50 [8]: > 260 µM (inconclusive); AC50 [9]: 2.37 µM (active); AC50 [10]: 17.8 µM (inconclusive); AC50 [13]: 10.6 µM (active); EC50 [19]: < 0.059 µM (active); AC50 [22]: 25.1 µM (inconclusive) |
| CN(/N=C/c1ccc2c(c1)OCO2)c1nc(N2CCOCC2)nc(N2CCOCC2)n1 |  |  |  |  |  |  |  |  |  |  |  |  |  |  |  |  | IC50 [23]: > 50 µM (inactive) |
| Cc1sc2nc(C(C)Nc3ccccc3N3CCOCC3)[nH]c(=O)c2c1C (centres undefined) |  |  |  |  |  |  |  |  |  |  |  |  |  | > 20 µM (inactive) | 9.08 µM (active) | 16.5 µM (active) |  |
| COc1ccc(CN(C)C(=O)Cc2ccc(OC)c(S(=O)(=O)N3CCOCC3)c2)cc1OC |  |  |  |  |  |  |  |  |  |  |  |  |  | > 20 µM (inactive) | 10.8 µM (active) | 12.6 µM (active) |  |
| O=C(N/N=C/c1ccc([N+](=O)[O-])o1)c1cc2ccccc2o1 | 17 µM (active) | 2.63 µM (active) | 1.85 µM (active) | 23.8 µM (active) | > 20 µM (active) | 14.1 µM (inconclusive) | > 120 µM (not active) | > 60 µM (not active) | 10.7 µM (active) | 4.63 µM (inconclusive) | 21.2 µM (active) | 22 µM (active) | > 120 µM (not active) |  |  |  | IC50 [27]: 16.1 µM (active); IC50 [28]: 17.8 µM (inactive); AC50 [29]: 5.99 µM (active); IC50 [30]: > 20 µM (inactive); EC50 [31]: 10.5 µM (active); IC50 [32]: > 20 µM (inactive); EC50 [33]: 7.3 µM (active) |
